Measured values taken from patent publication US4370326A, “Cephem compounds and composition” (Fujisawa Pharmaceutical Co., Ltd., priority 1977, dated 1983).
≈ marks a conversion by molar mass, not a printed value.

Key:
Experiment in all cases: In vitro antibacterial activity, two-fold agar-plate dilution method
Type in all cases: cell-based
Klebsiella aerogenes 417 = conditions: heart infusion agar, 37° C., 20 hours, 10^8 viable cells per ml, read-out: minimal inhibitory concentration (MIC)
Experimental: (§1) In vitro antibacterial activity was determined by the two-fold agar-plate dilution method as described below. One loopful of an overnight culture of each test strain in Trypticase-soy broth (10^8 viable cells per ml.) was streaked on heart infusion agar (HI-agar) containing graded concentrations of antibiotics, and the minimal inhibitory concentration (MIC) was expressed in terms of μg/ml. after incubation at 37° C. for 20 hours. [drawing 15]

Proteus vulgaris 616 = conditions: heart infusion agar, 37° C., 20 hours, 10^8 viable cells per ml, read-out: minimal inhibitory concentration (MIC)
Experimental: as §1

Escherichia coli 324 = conditions: heart infusion agar, 37° C., 20 hours, 10^8 viable cells per ml, read-out: minimal inhibitory concentration (MIC)
Experimental: as §1

Salmonella enteritidis = conditions: Salmonella enterica, heart infusion agar, 37° C., 20 hours, 10^8 viable cells per ml, read-out: minimal inhibitory concentration (MIC)
Experimental: as §1

Proteus mirabilis 520 = conditions: heart infusion agar, 37° C., 20 hours, 10^8 viable cells per ml, read-out: minimal inhibitory concentration (MIC)
Experimental: as §1

SMILES	MIC (Klebsiella aerogenes 417) [µg/mL]	MIC (Proteus vulgaris 616) [µg/mL]	MIC (Escherichia coli 324) [µg/mL]	MIC (Salmonella enteritidis) [µg/mL]	MIC (Proteus mirabilis 520) [µg/mL]
Nc1nc(C(N)C(=O)NC2C(=O)N3C(C(=O)O)=CCSC23)cs1 (centres unmarked) [Compound 3]	0.39 (≈ 1.1 µM)	1.56 (≈ 4.39 µM)	0.78 (≈ 2.19 µM)	3.13 (≈ 8.81 µM)	0.78 (≈ 2.19 µM)
Nc1nc(C(O)C(=O)NC2C(=O)N3C(C(=O)O)=CCSC23)cs1 (centres unmarked) [Compound 4]	0.78 (≈ 2.19 µM)	12.5 (≈ 35.1 µM)	1.56 (≈ 4.38 µM)	3.13 (≈ 8.78 µM)	1.56 (≈ 4.38 µM)
Nc1nc(CC(=O)NC2C(=O)N3C(C(=O)O)=CCSC23)cs1 (centres unmarked) [Compound 2]	0.2 (≈ 0.588 µM)	6.25 (≈ 18.4 µM)	1.56 (≈ 4.58 µM)	1.56 (≈ 4.58 µM)	0.39 (≈ 1.15 µM)
Nc1nc(C(=O)C(=O)NC2C(=O)N3C(C(=O)O)=CCSC23)cs1 (centres unmarked) [Compound 1]	0.1 (≈ 0.282 µM)	12.5 (≈ 35.3 µM)	1.56 (≈ 4.4 µM)	1.56 (≈ 4.4 µM)	0.78 (≈ 2.2 µM)
